# Test system: not given
# Assay: not given
# Settings: value from S. P. Ng et al. (2005), footnote *; cited from earlier work
row,SMILES,Solubility (PBS)
1,"O=c1cc(-c2ccc(O)cc2)oc2cc(O)cc(O)c12 [5,7-dihydroxy-2-(4-hydroxyphenyl)-4H-chomen-4-one]",3.37* μM

# Same assay, conditions: value from S. P. Ng et al. (2005), footnote *; listed as apigenin; cited from earlier work
row,SMILES,Solubility (PBS)
1,"O=c1cc(-c2ccc(O)cc2)oc2cc(O)cc(O)c12 [5,7-dihydroxy-2-(4-hydroxyphenyl)-4H-chomen-4-one]",3.27 µM

# Test system: not given
# Assay: not given
# Settings: not given
row,melting point,SMILES
1,269 to 270 °C,"COc1ccc(-c2cc(=O)c3cccnc3o2)cc1 [Example 10, 2-(4-Methoxyphenyl)-4H-pyrano[2,3-b]pyridine-4-one]"
2,267 to 272 °C,"O=c1cc(-c2ccc(O)c(Br)c2)oc2ncccc12 [Example 8, 2-(3-Bromo-4-hydroxyphenyl)-4H-pyrano[2,3-b]pyridin-4-one]"
3,253 to 255 °C,"COc1cc(-c2cc(=O)c3cccnc3o2)ccc1O [Example 9, 2-(4-Hydroxy-3-methoxyphenyl)-4H-pyrano[2,3-b]pyridine-4-one]"
4,300 to 302 °C,"Cc1cc(-c2cc(=O)c3cccnc3o2)ccc1O [Example 5, 2-(4-Hydroxy-3-methylphenyl)-4H-pyrano[2,3-b]pyridine-4-one]"
5,294 to 296 °C,"O=c1cc(-c2ccc(O)cc2)oc2cnccc12 [Example 3, 2-(4-Hydroxyphenyl)-pyrano[2,3-c]pyridin-4-one]"
6,267 to 268 °C,"O=c1cc(-c2ccc(O)c(F)c2)oc2ncccc12 [Example 4, 2-(3-Fluoro-4-hydroxyphenyl)pyrano[2,3-b]pyridine-4-one]"
7,259 to 262 °C,"O=c1cc(-c2ccc(O)c(Cl)c2)oc2ncccc12 [Example 7, 2-(3-Chloro-4-hydroxyphenyl)-4H-pyrano[2,3-b]pyridine-4-one]"
8,157 to 159 °C,"O=c1cc(-c2ccc(OCCO)cc2)oc2ncccc12 [Example 11, 2-(4-(2-Hydroxyethoxy)phenyl)-4H-pyrano[2,3-b]pyridine-4-one]"
9,226 to 227 °C,"O=c1cc(-c2ccc(O)c(CO)c2)oc2ncccc12 [Example 13, 2-(4-Hydroxy-3-(hydroxymethyl)phenyl)-4H-pyrano[2,3′-b]pyridine-4-one]"
10,167 to 169 °C,"CC(=O)Oc1ccc(-c2cc(=O)c3cccnc3o2)cc1 [Example 12, 4-(4-Oxo-4H-pyrano[2,3-b]pyridine-2-yl)phenyl acetate]"
11,306 to 308 °C,"O=c1cc(-c2ccc(O)cc2)oc2ccncc12 [Example 6, 2-(4-Hydroxyphenyl)-4H-pyrano[3,2-c]pyridin-4-one]"

# Test system: Caco-2 cells
# Assay: Caco-2 permeability (in vitro Caco-2 intestinal transport model)
# Assay type: in vitro ADME
# Settings: not given
# Excerpt: The Caco-2 cell drug transport model is widely used for screening compounds in drug discovery to assess intestinal transport and predict absorption rates.
% Transported Paap,Apparent permeability (Papp),SMILES
1.01e-05 cm/s,,CCCO [Propanol]
,3.34e-06 cm/s,Oc1ccc(C=Cc2cc(O)cc(O)c2)cc1 [Resveratrol]
,1.5e-06 cm/s,"O=c1cc(-c2ccc(O)cc2)oc2cc(O)cc(O)c12 [5,7-dihydroxy-2-(4-hydroxyphenyl)-4H-chomen-4-one]"

# Biological target: T1, Brd4 bromodomain 1 (Homo sapiens, UniProt O60885)
# T1 construct: Illustrative results with the first bromodomain of Brd4; made in house; host or cells: E. coli BL21(DE3)
# Assay: Inhibition of tetra-acetylated histone H4 binding to BET bromodomain (TR-FRET)
# Settings: His-tagged first bromodomain of Brd4 (200 nM), biotinylated tetra-acetylated histone H4 peptide, 2 hours at room temperature
# Procedure: Proteins were cloned and overexpressed with a N-terminal 6×His tag, then purified by nickel affinity followed by size exclusion chromatography. Briefly, E. coli BL21(DE3) cells were transformed with a recombinant expression vector encoding N-terminally Nickel affinity tagged bromodomains from Brd2, Brd3, Brd4. Cell cultures were incubated at 37° C. with shaking to the appropriate density and induced overnight with IPTG. The supernatant of lysed cells was loaded onto Ni-IDA column for purification. Eluted protein was pooled, concentrated and further purified by size exclusion chromatography. Fractions representing monomeric protein were pooled, concentrated, aliquoted, and frozen at −80° C. for use in subsequent experiments.
# Binding of tetra-acetylated histone H4 and BET bromodomains was confirmed by a Time Resolved Fluorescence Resonance Energy Transfer (TR-FRET) method. N-terminally His-tagged bromodomains (200 nM) and biotinylated tetra-acetylated histone H4 peptide (25-50 nM, Millipore) were incubated in the presence of Europium Cryptate-labeled streptavidin (Cisbio Cat. #610SAKLB) and XL665-labeled monoclonal anti-His antibody (Cisbio Cat. #61HISXLB) in a white 96 well microtiter plate (Greiner). For inhibition assays, serially diluted test compound was added to these reactions in a 0.2% final concentration of DMSO. Final buffer concentrations were 30 mM HEPES pH 7.4, 30 mM NaCl, 0.3 mM CHAPS, 20 mM phosphate pH 7.0, 320 mM KF, 0.08% BSA). After 2 hours incubation at room temperature, the fluorescence by FRET was measured at 665 and 620 nm by a SynergyH4 plate reader (Biotek). Illustrative results with the first bromodomain of Brd4. The binding inhibitory activity was shown by a decrease in 665 nm fluorescence relative to 620 nm. IC50 values were determined from a dose response curve.
row,FRET activity (<50 uM),SMILES
1,Active,"O=c1cc(-c2ccc(O)c(Br)c2)oc2ncccc12 [Example 8, 2-(3-Bromo-4-hydroxyphenyl)-4H-pyrano[2,3-b]pyridin-4-one]"
2,Active,"O=c1cc(-c2ccc(O)cc2)oc2ncccc12 [Example 1, 2-(4-Hydroxy-phenyl)-pyrano[2,3-b]pyridin-4-one]"
3,Active,"O=c1cc(-c2ccc(O)cc2)oc2cccnc12 [Example 2, 2-(4-Hydroxy-phenyl)-pyrano[3,2-b]pyridin-4-one]"

# From patent US20130281396A1, “TREATMENT OF DISEASES BY EPIGENETIC REGULATION” (RVX Therapeutics Inc., priority 2012, published 2013)
